Reference: ChEMBL document CHEMBL5331089, “Mucormycosis: A hidden mystery of fungal infection, possible diagnosis, treatment and development of new therapeutic agents” (Eur J Med Chem, 2023)
Values after ≈ are worked out from the molar mass of the structure shown.

Key:
[1] = tested on: Syncephalastrum racemosum; experiment: Antifungal activity against Syncephalastrum racemosum assessed as fungal growth inhibition measured for 24 to 24 hrs by agar well diffusion assay; format: functional, organism-based; conditions: for MIC: time 24-24 hrs
[2] = tested on: Syncephalastrum racemosum; experiment: Antifungal activity against Syncephalastrum racemosum RCMB 016001 assessed as zone of inhibition measured after 24 hrs; format: functional
[3] = tested on: Mucor circinelloides; experiment: Antifungal activity against Mucor circinelloides assessed as fungal growth inhibition measured at 36 to 48 hrs; format: functional; conditions: time 36-48 hrs
[4] = tested on: Rhizomucor pusillus; experiment: Antifungal activity against Rhizomucor pusillus assessed as fungal growth inhibition measured at 36 to 48 hrs; format: functional; conditions: time 36-48 hrs
[5] = tested on: Rhizopus delemar; experiment: Antifungal activity against Rhizopus delemar assessed as fungal growth inhibition; format: functional; conditions: read-out: MEC
[6] = tested on: Rhizopus arrhizus; experiment: Antifungal activity against Rhizopus oryzae assessed as fungal growth inhibition; format: functional; conditions: read-out: MEC
[7] = tested on: Lichtheimia corymbifera; experiment: Antifungal activity against Absidia corymbifera assessed as fungal growth inhibition; format: functional; conditions: read-out: MEC
[8] = tested on: Mucor circinelloides; experiment: Antifungal activity against Mucor circinelloides assessed as fungal growth inhibition; format: functional; conditions: read-out: MEC
[9] = tested on: Mucor indicus; experiment: Antifungal activity against Mucor indicus assessed as fungal growth inhibition; format: functional; conditions: read-out: MEC
[10] = tested on: Rhizomucor pusillus; experiment: Antifungal activity against Rhizomucor pusillus clinical isolate assessed as fungal growth inhibition measured after 48 hrs by microtitre plate reader analysis; format: functional
[11] = tested on: Rhizomucor pusillus; experiment: Antifungal activity against Rhizomucor pusillus CN(M)231 assessed as fungal growth inhibition measured after 48 hrs by microtitre plate reader assay; format: functional
[12] = tested on: Rhizopus arrhizus; experiment: Antifungal activity against Rhizopus oryzae clinical isolate assessed as fungal growth inhibition by checkerboard broth microdilution assay; format: functional
[13] = tested on: Rhizopus arrhizus; experiment: Antifungal activity against Rhizopus oryzae clinical isolate assessed as fungal growth inhibition measured after 24 to 72 hrs by microtitre plate reader analysis; format: functional; conditions: time 24-72 hrs
[14] = tested on: Rhizopus arrhizus; experiment: Antifungal activity against Rhizopus oryzae CBS 109939 assessed as fungal growth inhibition by checkerboard broth microdilution assay; format: functional
[15] = tested on: Rhizopus arrhizus; experiment: Antifungal activity against Rhizopus oryzae clinical isolate RO-969 assessed as fungal growth inhibition measured after 24 hrs; format: functional
[16] = tested on: Rhizopus arrhizus; experiment: Antifungal activity against Rhizopus oryzae clinical isolate RO-275 assessed as fungal growth inhibition measured after 24 hrs; format: functional
[17] = tested on: Rhizopus arrhizus; experiment: Antifungal activity against Rhizopus oryzae clinical isolate RO-449 assessed as fungal growth inhibition measured after 24 hrs; format: functional
[18] = tested on: Rhizopus stolonifer; experiment: Antifungal activity against Rhizopus stolonifer SZMC 11101 assessed as fungal growth inhibition measured after 24 hrs by microtitre plate reader assay; format: functional
[19] = tested on: Syncephalastrum racemosum; experiment: Antifungal activity against Syncephalastrum racemosum SZMC 2011 assessed as fungal growth inhibition measured after 24 hrs by microtitre plate reader assay; format: functional
[20] = tested on: Mycotypha africana; experiment: Antifungal activity against Mycotypha africana NRRL 2978 assessed as fungal growth inhibition measured after 24 hrs by microtitre plate reader assay; format: functional
[21] = tested on: Mucor circinelloides; experiment: Antifungal activity against Mucor circinelloides MS 12 assessed as fungal growth inhibition measured after 48 hrs by plate reader assay; format: functional
[22] = tested on: Rhizopus arrhizus; experiment: Antifungal activity against Rhizopus arrhizus assessed as fungal growth inhibition; format: functional
[23] = tested on: Absidia; experiment: Antifungal activity against Absidia assessed as fungal growth inhibition measured upto 48 hrs by spectrophotometric analysis; format: functional
[24] = tested on: Rhizomucor miehei; experiment: Antifungal activity against Rhizomucor miehei CBS 360.92 assessed as fungal growth inhibition measured after 48 hrs by microtitre plate reader assay; format: functional
[25] = tested on: Lichtheimia corymbifera; experiment: Antifungal activity against Absidia corymbifera SZMC 2010 assessed as fungal growth inhibition measured after 48 hrs by microtitre plate reader assay; format: functional
[26] = tested on: Mucorales; experiment: Antifungal activity against Mucorales assessed as fungal growth inhibition measured 24 to 48 hrs; format: functional; conditions: time 24-48 hrs
[27] = tested on: Rhizopus arrhizus; experiment: Antifungal activity against Rhizopus oryzae CBS 112.07 assessed as fungal growth inhibition measured after 48 hrs by microtitre plate reader assay; format: functional
[28] = tested on: Rhizopus arrhizus; experiment: Antifungal activity against Rhizopus oryzae assessed as fungal growth inhibition at 12.5 ug/ml measured after 24 hrs by microtiter plate assay relative to control; format: functional
[29] = tested on: Mucor circinelloides; experiment: Antifungal activity against Mucor circinelloides assessed as fungal growth inhibition at 100 ug/ml measured after 24 hrs by microtiter plate assay relative to control; format: functional
[30] = tested on: Phycomyces blakesleeanus; experiment: Antifungal activity against Phycomyces blakesleeanus assessed as fungal growth inhibition at 6.26 ug/ml measured after 24 hrs by microtiter plate assay relative to control; format: functional
[31] = Antifungal activity against Rhizopus microsporus var. oligosporus NRRL 514 assessed as fungal growth inhibition measured after 48 hrs by microtitre plate reader assay; format: functional

## CCOC(=O)N1C/C(=C\c2ccc(OC)cc2)C(=O)[C@@]2(C1)[C@H](c1ccc(OC)cc1)[C@H]1CCCN1[C@]21C(=O)Nc2ccccc21
[1]
  IC50: 11.3 µg/mL (≈ 18.6 µM)
  MIC: 0.98 µg/mL (≈ 1.61 µM)

## CCOC(=O)N1C/C(=C\c2ccc(Cl)cc2)C(=O)[C@@]2(C1)[C@H](c1ccc(Cl)cc1)CN(C)[C@]21C(=O)Nc2ccccc21
[2]
  inhibition zone (IZ): 39.46 mm
[1]
  IC50: 16.4 µg/mL (≈ 27.7 µM)
  MIC: 1.95 µg/mL (≈ 3.3 µM)

## CCOC(=O)N1C/C(=C\c2ccc([N+](=O)[O-])cc2)C(=O)[C@@]2(C1)[C@H](c1ccc([N+](=O)[O-])cc1)[C@H]1CCCN1[C@]21C(=O)Nc2ccccc21
[2]
  inhibition zone (IZ): 39.46 mm
[1]
  IC50: 10.6 µg/mL (≈ 16.7 µM)
  MIC: 0.49 µg/mL (≈ 0.768 µM)

## CCOC(=O)N1C/C(=C\c2ccc(F)c(F)c2)C(=O)[C@@]2(C1)[C@H](c1ccc(F)c(F)c1)[C@H]1CCCN1[C@]21C(=O)Nc2ccccc21
[1]
  IC50: 11.3 µg/mL (≈ 18.3 µM)
  MIC: 1.95 µg/mL (≈ 3.15 µM)

## CCOC(=O)N1C/C(=C\c2cc(OC)c(OC)c(OC)c2)C(=O)[C@@]2(C1)[C@H](c1cc(OC)c(OC)c(OC)c1)[C@H]1CCCN1[C@]21C(=O)Nc2ccccc21
[2]
  inhibition zone (IZ): 39.46 mm

## Cc1ccc([C@H]2[C@@]3(SC(=O)NC3=O)C3CCCN3[C@@]23C(=O)Nc2ccccc23)cc1 (stereo not given in full)
[2]
  inhibition zone (IZ): 19 mm

## CCOC(=O)N1C/C(=C\c2cc(OC)c(OC)c(OC)c2)C(=O)[C@@]2(C1)[C@H](c1cc(OC)c(OC)c(OC)c1)CN(C)[C@]21C(=O)Nc2ccccc21
[2]
  inhibition zone (IZ): 39.46 mm

## O=C1NC(=O)[C@]2(S1)C1CCCN1[C@@]1(C(=O)Nc3ccccc31)[C@H]2c1ccccc1 (stereo not given in full)
[2]
  inhibition zone (IZ): 14 mm

## Cc1cc(N2CCN(c3ccc(C(=O)N[C@H]4CCCC[C@@H]4O)cc3)CC2)ccc1OC[C@@H]1CO[C@@](Cn2cncn2)(c2ccc(F)cc2F)C1
[3]
  MIC: 2 µg/mL (≈ 2.91 µM)
[4]
  MIC: 2 µg/mL (≈ 2.91 µM)

## C[C@@H]1C[C@H]1/C=C/[C@@H]1C[C@H]1[C@@H]1C[C@H]1[C@@H]1C[C@H]1[C@@H]1C[C@H]1/C=C/C=C/C(=O)NC[C@H]1O[C@@H](N2CCC(=O)NC2=O)[C@H](O)[C@@H]1O
[5]
  minimal effective concentration: 0.016 µg/mL
[6]
  minimal effective concentration: ≤ 0.008 µg/mL
[7]
  minimal effective concentration: ≤ 0.008 µg/mL
[8]
  minimal effective concentration: 0.016 µg/mL
[9]
  minimal effective concentration: ≤ 0.008 µg/mL

## CCOC(=O)N1C/C(=C\c2ccc([N+](=O)[O-])cc2)C(=O)[C@@]2(C1)[C@H](c1ccc([N+](=O)[O-])cc1)CN(C)[C@]21C(=O)Nc2ccccc21
[2]
  inhibition zone (IZ): 39.46 mm

## CCOC(=O)N1C/C(=C\c2ccc(F)cc2)C(=O)[C@@]2(C1)[C@H](c1ccc(F)cc1)CN(C)[C@]21C(=O)Nc2ccccc21
[2]
  inhibition zone (IZ): 39.46 mm

## CCOC(=O)N1C/C(=C\c2ccc(F)c(F)c2)C(=O)[C@@]2(C1)[C@H](c1ccc(F)c(F)c1)CN(C)[C@]21C(=O)Nc2ccccc21
[2]
  inhibition zone (IZ): 39.46 mm

## CCOC(=O)N1C/C(=C\c2ccc(Cl)cc2)C(=O)[C@@]2(C1)[C@H](c1ccc(Cl)cc1)[C@H]1CCCN1[C@]21C(=O)Nc2ccccc21
[2]
  inhibition zone (IZ): 39.46 mm

## C[C@@H]1[C@H](O)[C@@H](C)/C=C/C=C/C=C/C=C/C=C/C=C/C=C/[C@H](O[C@@H]2O[C@H](C)[C@@H](O)[C@H](N)[C@@H]2O)C[C@@H]2O[C@](O)(C[C@@H](O)C[C@@H](O)[C@H](O)CC[C@@H](O)C[C@@H](O)CC(=O)O[C@H]1C)C[C@H](O)[C@H]2C(=O)O [AMPHOTERICIN B]
[2]
  inhibition zone (IZ): 22 mm
[1]
  IC50: 14.3 µg/mL (≈ 15.4 µM)
  MIC: 1.95 µg/mL (≈ 2.11 µM)
[10]
  MIC: 2 µg/mL (≈ 2.16 µM)
  MIC90: 1 µg/mL (≈ 1.08 µM)
[11]
  MIC: 1 µg/mL (≈ 1.08 µM)
[12]
  MIC: 2 µg/mL

## CC(C)c1c(C(=O)Nc2ccccc2)c(-c2ccccc2)c(-c2ccc(F)cc2)n1CC[C@@H](O)C[C@@H](O)CC(=O)O [ATORVASTATIN]
[13]
  MIC: 32 µg/mL (≈ 57.3 µM)
[14]
  MIC: 32 µg/mL
[15]
  MIC: 64 µg/mL (≈ 115 µM)
[16]
  MIC: 64 µg/mL (≈ 115 µM)
[17]
  MIC: 64 µg/mL (≈ 115 µM)
[18]
  MIC: 64 µg/mL (≈ 115 µM)
[19]
  MIC: 32 µg/mL (≈ 57.3 µM)
[20]
  MIC: 8 µg/mL (≈ 14.3 µM)
[21]
  MIC: 16 µg/mL (≈ 28.6 µM)

## OC(Cn1cncn1)(Cn1cncn1)c1ccc(F)cc1F [FLUCONAZOLE]
[2]
  inhibition zone (IZ): 22 mm

## Nc1c(-c2cc(Cc3ccc(COc4ccccn4)cc3)no2)ccc[n+]1COP(=O)([O-])O [FOSMANOGEPIX]
[22]
  MEC: 0.25 µg/mL

## CCC(C)n1ncn(-c2ccc(N3CCN(c4ccc(OCC5COC(Cn6cncn6)(c6ccc(Cl)cc6Cl)O5)cc4)CC3)cc2)c1=O (stereo not given) [ITRACONAZOLE]
[23]
  MIC: 0.03 µg/mL (≈ 0.0425 µM)
[3]
  MIC: > 8 µg/mL

## CC[C@H](C)C(=O)O[C@H]1C[C@@H](C)C=C2C=C[C@H](C)[C@H](CC[C@@H](O)C[C@@H](O)CC(=O)O)[C@H]21 [LOVASTATIN ACID]
[11]
  MIC90: 11 µg/mL (≈ 26 µM)
[24]
  MIC90: 11 µg/mL (≈ 26 µM)
[25]
  MIC90: 11 µg/mL (≈ 26 µM)

## CC[C@@H]([C@H](C)O)n1ncn(-c2ccc(N3CCN(c4ccc(OC[C@@H]5CO[C@@](Cn6cncn6)(c6ccc(F)cc6F)C5)cc4)CC3)cc2)c1=O [POSACONAZOLE]
[26]
  MIC: 1 µg/mL (≈ 1.43 µM)
[4]
  MIC: > 8 µg/mL

## CC(C)c1nc(N(C)S(C)(=O)=O)nc(-c2ccc(F)cc2)c1/C=C/[C@@H](O)C[C@@H](O)CC(=O)O [ROSUVASTATIN]
[27]
  MIC90: 96 µg/mL (≈ 199 µM)
[11]
  MIC90: 11 µg/mL (≈ 22.8 µM)
[24]
  MIC90: 11 µg/mL (≈ 22.8 µM)
[25]
  MIC90: 33 µg/mL (≈ 68.5 µM)
[18]
  MIC: 64 µg/mL (≈ 133 µM)
[19]
  MIC: 32 µg/mL (≈ 66.5 µM)
[20]
  MIC: 8 µg/mL (≈ 16.6 µM)
[21]
  MIC: 32 µg/mL (≈ 66.5 µM)

## CCC(C)(C)C(=O)O[C@H]1C[C@@H](C)C=C2C=C[C@H](C)[C@H](CC[C@@H]3C[C@@H](O)CC(=O)O3)[C@H]21 [SIMVASTATIN]
[11]
  MIC90: 11 µg/mL (≈ 26.3 µM)
[25]
  MIC90: 96 µg/mL (≈ 229 µM)
[14]
  MIC: 64 µg/mL
[19]
  MIC: 8 µg/mL (≈ 19.1 µM)

## CO[C@H]1C[C@@H]2CC[C@@H](C)[C@@](O)(O2)C(=O)C(=O)N2CCCC[C@H]2C(=O)O[C@H]([C@H](C)C[C@@H]2CC[C@@H](O)[C@H](OC)C2)CC(=O)[C@H](C)/C=C(\C)[C@@H](O)[C@@H](OC)C(=O)[C@H](C)C[C@H](C)/C=C/C=C/C=C/1C [SIROLIMUS]
[28]
  inhibition at 12.5 µg/mL: ≤ 80%
[29]
  inhibition at 100 µg/mL: ≤ 80%
[30]
  inhibition at 6.26 µg/mL: ≤ 80%

## CCC(C)(C)C(=O)O[C@H]1C[C@@H](C)C=C2C=C[C@H](C)[C@H](CC[C@@H](O)C[C@@H](O)CC(=O)O)[C@H]21 [TENIVASTATIN]
[11]
  MIC90: 1.2 µg/mL (≈ 2.75 µM)
[25]
  MIC90: 11 µg/mL (≈ 25.2 µM)
[31]
  MIC90: 33 µg/mL (≈ 75.6 µM)

## C[C@@H](c1ncncc1F)[C@](O)(Cn1cncn1)c1ccc(F)cc1F [VORICONAZOLE]
[3]
  MIC: > 8 µg/mL
[4]
  MIC: > 8 µg/mL
